Values joined by “and” are separate entries in the source; they are usually repeats but may differ in a detail not shown here. Equal entries are not always repeated.
Legend:
Experiment in all cases: β-arrestin2 recruitment (Tango)
Type in all cases: cell-based
5HT1E = 5HT1E (Homo sapiens, UniProt P28566); settings: Fig_S10i; further: reference of the scale not given here
5HT1F = biological target: T1, 5HT1F (Homo sapiens, UniProt P30939); settings: for β-arrestin2 recruitment response, agonist mode (single replicate values): Fig_S10j; for Fig_S10j dose-response, drug alone (agonist mode), β-arrestin2 recruitment: single replicate values; on β-arrestin2 recruitment response, agonist mode (single replicate values): reference of the scale not given here
T1 construct: expressed in transfected cells; host or cells: HTLA cells expressing TEV-fused β-arrestin2
T1 sequence (P30939 1-366): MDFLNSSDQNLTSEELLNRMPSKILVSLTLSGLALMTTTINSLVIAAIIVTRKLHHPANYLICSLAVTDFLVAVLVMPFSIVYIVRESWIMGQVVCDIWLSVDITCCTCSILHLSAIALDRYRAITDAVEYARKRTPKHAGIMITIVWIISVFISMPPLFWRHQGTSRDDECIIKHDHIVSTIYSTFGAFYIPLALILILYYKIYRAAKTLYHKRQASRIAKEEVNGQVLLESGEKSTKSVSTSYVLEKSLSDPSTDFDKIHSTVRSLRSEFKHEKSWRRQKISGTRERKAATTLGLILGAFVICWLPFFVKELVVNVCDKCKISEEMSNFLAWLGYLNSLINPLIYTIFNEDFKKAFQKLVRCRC

5HT2A = 5HT2A (Homo sapiens, UniProt P28223); settings: single replicate values
Sequence of 5HT2A (P28223 whole entry): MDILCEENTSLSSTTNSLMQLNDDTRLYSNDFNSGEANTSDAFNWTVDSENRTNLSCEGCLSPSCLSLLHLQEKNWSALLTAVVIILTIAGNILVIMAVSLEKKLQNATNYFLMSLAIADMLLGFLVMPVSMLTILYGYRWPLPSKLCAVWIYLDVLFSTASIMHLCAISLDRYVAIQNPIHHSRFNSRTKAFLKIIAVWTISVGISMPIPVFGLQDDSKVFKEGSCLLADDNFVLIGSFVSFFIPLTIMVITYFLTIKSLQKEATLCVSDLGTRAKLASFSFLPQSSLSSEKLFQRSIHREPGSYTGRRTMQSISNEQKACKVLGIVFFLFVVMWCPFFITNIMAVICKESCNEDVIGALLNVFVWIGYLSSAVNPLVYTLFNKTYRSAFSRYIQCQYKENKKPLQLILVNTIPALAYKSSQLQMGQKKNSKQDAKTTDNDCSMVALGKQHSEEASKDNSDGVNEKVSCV

Sequence of 5HT1E (P28566 whole entry): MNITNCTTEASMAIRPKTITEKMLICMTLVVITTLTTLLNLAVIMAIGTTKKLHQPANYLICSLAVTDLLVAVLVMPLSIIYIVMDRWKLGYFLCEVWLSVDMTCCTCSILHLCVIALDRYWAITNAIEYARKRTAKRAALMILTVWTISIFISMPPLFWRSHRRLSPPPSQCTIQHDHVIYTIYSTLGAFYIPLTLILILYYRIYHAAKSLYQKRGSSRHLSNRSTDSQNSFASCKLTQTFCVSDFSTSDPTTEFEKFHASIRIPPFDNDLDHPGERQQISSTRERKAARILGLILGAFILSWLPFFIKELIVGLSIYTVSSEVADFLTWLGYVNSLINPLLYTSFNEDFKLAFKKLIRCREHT

## NCCc1c[nH]c2ccc(O)cc12 [serotonin]
5HT1E; Log[Drug] -5.52
  β-arrestin2 recruitment response, agonist mode (single replicate values): 108.092 and 78.7034 and 68.0996 and 111.634 and 84.2736 and 51.0795 and 58.1946
5HT1E; Log[Drug] -6
  β-arrestin2 recruitment response, agonist mode (single replicate values): 49.7303 and 44.0521 and 69.0964 and 55.0788 and 40.5129 and 63.4469 and 42.3724 and 34.8106
5HT1E; Log[Drug] -6.52
  β-arrestin2 recruitment response, agonist mode (single replicate values): 106.224 and 69.1939 and 36.3693 and 81.3314 and 34.6361 and 22.755 and 52.7781 and 32.1336 and 42.1707
5HT1E; Log[Drug] -7
  β-arrestin2 recruitment response, agonist mode (single replicate values): 29.3778 and 17.2077 and 21.8054 and 52.9182 and 14.1436 and 22.9549 and 34.3028 and 15.3331 and 17.5442
5HT1E; Log[Drug] -7.52
  β-arrestin2 recruitment response, agonist mode (single replicate values): 41.4851 and -6.092 and 11.8176 and 23.4775 and 20.4513 and 6.343 and -1.8765 and -0.1243 and 3.783
5HT1E; Log[Drug] -8
  β-arrestin2 recruitment response, agonist mode (single replicate values): 21.7287 and -17.9678 and 1.664 and 16.3198 and 16.2023 and 1.767 and -8.704 and -1.0625 and 5.333
5HT1E; Log[Drug] -8.52
  β-arrestin2 recruitment response, agonist mode (single replicate values): 26.6743 and -0.7908 and -7.94 and 18.4011 and -5.808 and -1.038 and -3.241 and -4.6991 and -0.4891
5HT1E; Log[Drug] -9
  β-arrestin2 recruitment response, agonist mode (single replicate values): -13.5816 and -3.11 and -9.22 and 15.9426 and -4.472 and -7.47 and -3.2021 and 8.202 and 2.053
5HT1E; Log[Drug] -9.52
  β-arrestin2 recruitment response, agonist mode (single replicate values): -5.0682 and -13.6215 and 3.951 and -3.374 and 10.856 and -15.4751 and -6.969 and 2.056 and -4.273
5HT1E; Log[Drug] -10
  β-arrestin2 recruitment response, agonist mode (single replicate values): -0.8245 and 7.169 and 4.501 and 15.8236 and -1.758 and 5.793 and -9.018 and 1.66
5HT1E; Log[Drug] -10.52
  β-arrestin2 recruitment response, agonist mode (single replicate values): -1.038 and -22.0751 and -13.8927 and 22.1779 and 3.45 and -2.9 and -5.64 and 8.736
5HT1E; Log[Drug] -11
  β-arrestin2 recruitment response, agonist mode (single replicate values): -16.6513 and -2.431 and 20.3066 and 6.343 and -2.603 and 3.357
5HT1F; Log[Drug] -8
  β-arrestin2 recruitment response, agonist mode (single replicate values): -3.452 and 0.8129 and -0.7741 and 0.7081 and -0.3166
5HT1F; Log[Drug] -8.52
  β-arrestin2 recruitment response, agonist mode (single replicate values): 1.467 and -0.5936 and -0.6771 and -0.2347 and -1.695 and -2.24 and -2.059 and -1.682 and -0.1562 and 2.169 and 0.8707 and -1.81
5HT1F; Log[Drug] -9
  β-arrestin2 recruitment response, agonist mode (single replicate values): -0.04426 and -0.9855 and -1.843 and -0.9137 and -1.161 and -1.413 and 1.14 and -2.447 and -1.948 and 1.946 and -0.5 and -0.1377
5HT1F; Log[Drug] -9.52
  β-arrestin2 recruitment response, agonist mode (single replicate values): -2.101 and 2.6714 and -0.3744 and -0.1804 and 3.084 and -0.3427 and -1.809 and -0.4001 and 2.85 and -0.1339 and -0.298
5HT1F; Log[Drug] -10
  β-arrestin2 recruitment response, agonist mode (single replicate values): -0.8375 and -0.7488 and -1.773 and 1.74 and -2.24 and -1.559 and -0.2741 and -1.133 and -0.7969 and 0.416 and -0.2133 and -1.1997
5HT1F; Log[Drug] -10.52
  β-arrestin2 recruitment response, agonist mode (single replicate values): -2.914 and -1.511 and -1.366 and -1.154 and -2.628 and -0.5924 and -0.6184 and 5.324 and 0.8942 and 0.1831 and -0.2458 and -1.109
5HT1F; Log[Drug] -11
  β-arrestin2 recruitment response, agonist mode (single replicate values): 4.606 and -2.13 and -1.057 and 0.00776 and -2.261 and -1.2903 and -0.3379 and -1.603 and 0.8607 and 0.8858 and 0.4773 and -0.3843
5HT1F; Log[Drug] -11.52
  β-arrestin2 recruitment response, agonist mode (single replicate values): -1.978 and -2.064 and -1.769 and 3.255 and 2.53 and 1.832 and 0.0271 and 2.781 and -0.9914 and 1.71 and -0.0711 and -0.3911
5HT1F; Log[Drug] -12
  β-arrestin2 recruitment response, agonist mode (single replicate values): -1.651 and 2.46 and -1.762 and -0.6984 and -0.5958 and -0.3302 and -0.006376 and -1.878 and -2.439 and 3.47 and -0.3101 and 0.7769
5HT1F; Log[Drug] -5
  Fig_S10j dose-response, drug alone (agonist mode), β-arrestin2 recruitment: 60.4606 and 65.0002 and 90.3142 and 57.9444 and 78.7631 and 57.8244 and 78.5234 and 70.8275 and 63.3071
5HT1F; Log[Drug] -5.52
  Fig_S10j dose-response, drug alone (agonist mode), β-arrestin2 recruitment: 68.8966 and 66.6667 and 38.5966 and 34.7166 and 67.3748 and 41.3918 and 50.0717 and 43.7042 and 56.4145 and 60.2307 and 56.8071
5HT1F; Log[Drug] -6
  Fig_S10j dose-response, drug alone (agonist mode), β-arrestin2 recruitment: 65.3117 and 41.5532 and 32.9512 and 18.8414 and 35.6041 and 33.2006 and 38.6085 and 22.7128 and 20.6455 and 38.0393 and 43.4213 and 39.1952
5HT1F; Log[Drug] -6.52
  Fig_S10j dose-response, drug alone (agonist mode), β-arrestin2 recruitment: 37.7864 and 17.7453 and 10.6352 and 8.195 and 10.8807 and 16.9203 and 24.2636 and 7.26 and 7.434 and 25.9629 and 24.0976 and 19.2564
5HT1F; Log[Drug] -7
  Fig_S10j dose-response, drug alone (agonist mode), β-arrestin2 recruitment: 0.08171 and 0.8827 and 2.8945 and 3.486 and 0.8409 and 1.495 and 3.165 and 2.979 and 1.237 and 11.4622 and 7.762 and 4.191
5HT1F; Log[Drug] -7.52
  Fig_S10j dose-response, drug alone (agonist mode), β-arrestin2 recruitment: -1.661 and -1.926 and 1.238 and 3.081 and -2.387 and 1.699 and 4.498 and -1.4313 and 5.445 and 5.244 and 1.302 and 0.4992
5HT2A; Log[Drug] -7
  Fig_S10k dose-response, drug alone (agonist mode), β-arrestin2 recruitment: 2.15 and 3.679 and 4.811 and -0.4868 and 5.6493 and -0.2054
5HT2A; Log[Drug] -7.52
  Fig_S10k dose-response, drug alone (agonist mode), β-arrestin2 recruitment: -0.7997 and 2.965 and 17.8531 and -0.2054 and -0.763 and 5.3131 and 4.228 and 3.612 and 4.7477
5HT2A; Log[Drug] -8
  Fig_S10k dose-response, drug alone (agonist mode), β-arrestin2 recruitment: -3.989 and -1.195 and 1.849 and -1.365 and -2.184 and 9.999 and -0.5868 and 4.719
